Results: US9844536B2, “3-(1H-imidazo[4,5-C]pyridin-2-yl)-1H-pyrazolo[3,4-C]pyridine and therapeutic uses thereof” (Samumed, LLC, priority 2014, dated 2017)

Tests used:
Type in all cases: cell-based
[1] = test system: Wnt pathway (Sp5-Luc reporter, SW480 cells); experiment: Sp5-Luc reporter gene screening assay for Wnt activity in SW480 colon carcinoma cells; conditions: Homo sapiens
Outline: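 IC50 values come from variable-slope four-parameter fits of luciferase signal normalized to DMSO wells. Stable Sp5-Luc reporter SW480 colon carcinoma cells were exposed to compounds in a 3-fold dilution series (source plates from 10 mM stock) for forty-two hours at 37 °C.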

LL29 cells = experiment: Inhibition of the fibrotic process (αSMA staining) in TGF-β1 treated primary human fibroblasts from IPF patients; conditions: Fibroblast, 96 h, TGF-β1 20 ng/mL, 4 days, dose-response 10 μM to 1.87 nM, read-out: Inhibition of fibrosis EC50
Outline: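 LL29 IPF lung fibroblasts in 1% FBS were stimulated with TGF-β1 (20 ng/mL) and treated 4 days at 37 °C with compound (11 points, 10 μM–1.87 nM, 0.1% DMSO). The % αSMA-positive cells, imaged after excluding SYTOX-positive dead cells, was normalized to TGF-β1/DMSO wells. EC50 came from nonlinear regression over triplicates.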

ARPE-19 cells = experiment: Transdifferentiation of ARPE-19 cells into eye neuronal cells [photoreceptors], PAX6 staining; conditions: Homo sapiens, fixed at 40 hours, PAX6 antibody staining, normalized to DMSO
Procedure: The above synthesized compounds were screened using ARPE-19 cells [a spontaneously arising retinal pigment epithelia (RPE) cell line] to determine their ability to transdifferentiate ARPE-19 into eye neuronal cells [photoreceptors].
ARPE-19 cells are cultured in standard culture medium containing Dulbecco's Modified Eagle's Medium and Ham's F12 Nutrient Mixture (DMEM/F12) mix (1:1)+GlutaMax with 1% penicillin-Streptomycin and 10% FBS (Fetal Bovine Serum). Cells are incubated at 37° C. with 5% CO2. Cells are trypsinized and plated onto 384-well pre-spotted plate at a density of 3000 cells/well in 50 uL of media. Plating media: DMEM/F12 (1:1)+3% charcoal filtered-FBS+GlutaMax+1% pen/Strep. Cells are incubated at 37° C. with 5% CO2. At 40 hours, cells were fixed for 15 min with 10% Buffered Formalin. Cells were then washed 3 times with PBS for 5 min each, permeablize using 0.3% Triton X-100 in 1×PBS for 30 min, block for 1 hr with 2% BSA in 1×PBS with 0.1% Triton X-100. The primary antibody (1:100 PAX6 Santa Cruz Biotech; sc-81649) was diluted and 10 μL/well was added to the cells. The cells were incubated overnight at 4° C. […] Readings were normalized to DMSO only treated cells, and normalized activities were utilized for EC50 calculations using the dose-response log (activator) vs. response-variable slope (four parameters) nonlinear regression feature available in GraphPad Prism 5.0 or 6.0.

[2] = test system: primary human mesenchymal stem cells (hMSCs); experiment: Chondrogenesis induction screen in primary human mesenchymal stem cells (nodules, Rhodamine B/Nile Red); conditions: 144 h, 6 days; for EC (100% TGF-beta3 activity): concentration required to induce chondrogenesis equivalent to TGF-β3 (10 ng/mL), read-out: Conc (nM) of 100% TGF-β3 activity; for Emax: relative to TGF-β3 (10 ng/mL) positive control, read-out: Max. Activity as % TGF-β3 activity
Procedure: The above synthesized compounds were screened using primary human mesenchymal stem cells (hMSCs) to determine their ability to induce chondrogenesis (process by which cartilage is developed).
Primary human mesenchymal stem cells (hMSCs) were purchased from Lonza (Walkersville, Md.) and expanded in Mesenchymal Stem Cell Growth Media (Lonza). Cells between passage 3 and 6 were used for the experiments.
Each compound was dissolved in DMSO as a 10 mM stock and used to prepare compound source plates. Serial dilution (1:3, 6-point dose-response curves from 2700 nM to 10 nM) and compound transfer was performed using the ECHO 550 (Labcyte, Sunnyvale, Calif.) into 96-well clear bottom assay plates (Greiner Bio-One) with appropriate DMSO backfill for a final DMSO concentration of 0.03%. hMSCs were plated at 20,000 cells/well in 250 μL/well Incomplete Chondrogenic Induction Medium (Lonza; DMEM, dexamethasone, ascorbate, insulin-transferrin-selenium [ITS supplement], gentamycin-amphotericin [GA-1000], sodium pyruvate, proline and L-glutamine). TGF-β3 (10 ng/mL) was used as a positive control for differentiation while negative control wells were treated with 75 nL DMSO for normalization and calculating EC50 values. Cells were incubated at 37° C. and 5% CO2 for 6 days. To image chondrogenic nodules, the cells were fixed using 4% formaldehyde (Electron Microscopy Sciences), and stained with 2 μg/mL Rhodamine B (Sigma-Aldrich) and 20 μM Nile Red (Sigma-Aldrich) [Johnson K., et. al, A Stem Cell-Based Approach to Cartilage Repair, Science, (2012), 336(6082), 717-721]. The nodules imaged (4 images per well at 4× magnification) by excitation at 531 nm and emission at 625 nm and quantified using the CellInsight CX5 (Thermo Scientific). Number of nodules in each well was normalized to the average of 3 DMSO treated wells on the same plate using Excel (Microsoft Inc.). The normalized averages (fold change over DMSO) of 3 replicate wells for each compound concentration were calculated. Due to solubility limitations of some of the compounds, curve fitting was incomplete leading to inaccurate EC50 determinations.
Using TGF-03 as a positive control, the concentration of test compounds required to induce equivalent levels of chondrogenesis is reported. In addition, the maximum activity of each compound and the respective dose that each compound reached maximum chondrogenesis activity is reported.

Row | SMILES | IC50 [1] | EC50 (LL29 cells) | EC50 (ARPE-19 cells) | EC (100% TGF-beta3 activity) [2] | Emax [2]
1 | NC1CN(c2cncc(-c3cc4c(-c5nc6c(-c7cccc(F)c7)nccc6[nH]5)n[nH]c4cn3)n2)C1 [Compound 942, 1-(6-(3-(4-(3-Fluorophenyl)-1H-imidazo[4,5-c]pyridin-2-yl)-1H-pyrazolo[3,4-c]pyridin-5-yl)pyrazin-2-yl)azetidin-3-amine] | 46 nM | 303 nM | 5 nM |  | 
2 | O=C(Nc1cncc(-c2cc3c(-c4nc5c(-c6cccs6)nccc5[nH]4)n[nH]c3cn2)c1)C1CC1 [Compound 331, N-(5-(3-(4-(Thiophen-2-yl)-1H-imidazo[4,5-c]pyridin-2-yl)-1H-pyrazolo[3,4-c]pyridin-5-yl)pyridin-3-yl)cyclopropanecarboxamide] | 16.4 nM | ≤ 9 nM |  | 68.4 nM | 
3 | FC1(F)CCN(Cc2cncc(-c3cc4c(-c5nc6c(N7CCCCC7)nccc6[nH]5)n[nH]c4cn3)c2)C1 [Compound 181, 5-(5-((3,3-Difluoropyrrolidin-1-yl)methyl)pyridin-3-yl)-3-(4-(piperidin-1-yl)-1H-imidazo[4,5-c]pyridin-2-yl)-1H-pyrazolo[3,4-c]pyridine] | 61.6 nM | 140 nM |  | 68.1 nM | 
4 | CN(C)CCOc1cncc(-c2cc3c(-c4nc5c(-c6cccc(F)c6)nccc5[nH]4)n[nH]c3cn2)c1 [Compound 947, 2-((5-(3-(4-(3-Fluorophenyl)-1H-imidazo[4,5-c]pyridin-2-yl)-1H-pyrazolo [3,4-c]pyridin-5-yl)pyridin-3-yl)oxy)-N,N-dimethylethan-1-amine] | 99 nM | 484 nM | 35 nM |  | 
5 | Cn1cc(-c2cc3c(-c4nc5c(-c6cccc(F)c6)nccc5[nH]4)n[nH]c3cn2)cn1 [Compound 940, 3-(4-(3-Fluorophenyl)-1H-imidazo[4,5-c]pyridin-2-yl)-5-(1-methyl-1H-pyrazol-4-yl)-1H-pyrazolo[3,4-c]pyridine] | 10 nM | ≤ 9 nM |  | 110 nM | 100%
6 | CC(C)(C)C(=O)Nc1cncc(-c2cc3c(-c4nc5c(-c6ccc(F)s6)nccc5[nH]4)n[nH]c3cn2)c1 [Compound 346, N-(5-(3-(4-(5-Fluorothiophen-2-yl)-1H-imidazo[4,5-c]pyridin-2-yl)-1H-pyrazolo[3,4-c]pyridin-5-yl)pyridin-3-yl)pivalamide] | 12.6 nM | ≤ 9 nM |  | 40.9 nM | 
7 | Cc1ccc(-c2nccc3[nH]c(-c4n[nH]c5cnc(-c6cncc(N)c6)cc45)nc23)s1 [Compound 367, 5-(3-(4-(5-Methylthiophen-2-yl)-1H-imidazo[4,5-c]pyridin-2-yl)-1H-pyrazolo[3,4-c]pyridin-5-yl)pyridin-3-amine] | 2.1 nM | ≤ 9 nM |  | 259 nM | 10%
8 | CC(C)Nc1cncc(-c2cc3c(-c4nc5c(-c6ccoc6)nccc5[nH]4)n[nH]c3cn2)c1 [Compound 298, 5-(3-(4-(Furan-3-yl)-1H-imidazo[4,5-c]pyridin-2-yl)-1H-pyrazolo[3,4-c]pyridin-5-yl)-N-isopropylpyridin-3-amine] | 15 nM | 65 nM |  | 219 nM | 300%
9 | CC(=O)c1ccc(-c2nccc3[nH]c(-c4n[nH]c5cnc(-c6cccnc6)cc45)nc23)s1 [Compound 394, 1-(5-(2-(5-(Pyridin-3-yl)-1H-pyrazolo[3,4-c]pyridin-3-yl)-1H-imidazo[4,5-c]pyridin-4-yl)thiophen-2-yl)ethan-1-one] | 5.5 nM | 14 nM |  | 142 nM | 10%
10 | CCCC(=O)Nc1cncc(-c2cc3c(-c4nc5c(-c6cccc(F)c6)nccc5[nH]4)n[nH]c3cn2)c1 [Compound 17, N-(5-(3-(4-(3-Fluorophenyl)-1H-imidazo[4,5-c]pyridin-2-yl)-1H-pyrazolo[3,4-c]pyridin-5-yl)pyridin-3-yl)butyramide] | 10.7 nM | ≤ 9 nM |  | 67.8 nM | 10%
11 | Cc1ccncc1-c1cc2c(-c3nc4c(-c5cc(F)cc(CNS(C)(=O)=O)c5)nccc4[nH]3)n[nH]c2cn1 [Compound 421, N-(3-Fluoro-5-(2-(5-(4-methylpyridin-3-yl)-1H-pyrazolo[3,4-c]pyridin-3-yl)-1H-imidazo[4,5-c]pyridin-4-yl)benzyl)methanesulfonamide] | 9.9 nM | > 10000 nM |  | 122 nM | 10%
12 | COc1cncc(-c2cc3c(-c4nc5c(-c6cccc(F)c6)nccc5[nH]4)n[nH]c3cn2)c1 [Compound 948, 3-(4-(3-Fluorophenyl)-1H-imidazo[4,5-c]pyridin-2-yl)-5-(5-methoxypyridin-3-yl)-1H-pyrazolo[3,4-c]pyridine] | 10 nM | ≤ 9 nM |  | 174 nM | 900%
